# From patent publication US9163256B2, “Mutant receptors and their use in a nuclear receptor-based inducible gene expression system” (priority 2004, dated 2015)
# Where “and” joins values, the source holds several entries; their conditions need not be identical. Equal entries are not always repeated.
# Legend:
# CfEcR-DEF mutant A110N = CfEcR-DEF mutant A110N (Choristoneura fumiferana, UniProt O77255, A393N); experiment: cell-based; design: Concentration (mM) at max FI: unit not given here; conditions: for Emax: NIH3T3, 40 h, read-out: Rel Max FI
# CfEcR-DEF mutant A110N, sequence (O77255 entry or part of it A393N): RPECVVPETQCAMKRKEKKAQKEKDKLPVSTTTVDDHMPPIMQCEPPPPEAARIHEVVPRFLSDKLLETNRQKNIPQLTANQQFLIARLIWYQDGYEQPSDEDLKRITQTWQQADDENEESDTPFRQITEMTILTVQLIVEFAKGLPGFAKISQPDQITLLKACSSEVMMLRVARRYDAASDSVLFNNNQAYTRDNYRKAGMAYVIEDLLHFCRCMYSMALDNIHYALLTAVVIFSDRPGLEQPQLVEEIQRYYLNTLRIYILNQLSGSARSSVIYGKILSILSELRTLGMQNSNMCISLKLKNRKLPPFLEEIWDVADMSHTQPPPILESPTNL
# CfEcR-DEF mutant A110N, sequence (P28702 299-449, stated change not applied, further chain): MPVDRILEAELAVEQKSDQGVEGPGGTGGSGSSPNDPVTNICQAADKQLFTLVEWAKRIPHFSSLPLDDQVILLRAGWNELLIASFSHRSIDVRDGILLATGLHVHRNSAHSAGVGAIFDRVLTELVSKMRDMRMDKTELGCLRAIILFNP
# Experimental: (§1) This construct was prepared in the same way as in switch 1.1 above except wild-type CfEcR-DEF was replaced with mutant CfEcR-DEF comprising a ligand binding domain comprising a substitution mutation selected from Table 1 below.
# (§2) DNAs were transfected into mouse NIH3T3 cells (ATCC) as follows. Standard methods for culture and maintenance of the cells were followed. Cells were harvested and plated 96-well plates at 2,500 cells per well, in 50 μL of growth medium containing 10% fetal bovine serum (FBS). Twenty-four hours later, the cells were treated with 35 μL of serum-free growth medium containing either dimethylsulfoxide (DMSO; control) or a DMSO solution of ligand. The cells were then transfected using Superfect (Qiagen Inc.) transfection reagent. For each well, 0.625 μL of Superfect was mixed with 14.2 μL of serum-free growth medium. 0.16 μg of reporter construct and 0.04 μg of each receptor construct were added to the transfection reagent mix. The contents of the transfection mix were mixed in a vortex mixer and let stand at room temperature for 30 minutes. At the end of incubation, 15 μL of transfection mix was added to the cells. The cells were maintained at 37° C. and 5% CO2 for 48 hours in 5% FBS.
# (§3) Reporter Assays: Cells were harvested 40 hours after adding ligands. 125 μL of passive lysis buffer (part of Dual-Luciferase reporter assay system from Promega Corporation) were added to each well of the […] plate. The plates were placed on a rotary shaker for 15 minutes. Twenty μL of lysate were assayed. Luciferase activity was measured using Dual-Luciferase reporter assay system from Promega Corporation following the manufacturer's instructions. Fold induction (FI) activities were calculated by dividing relative light units (“RLU”) in ligand treated cells with RLU in DMSO treated cells (untreated control).
# CfEcR-DEF mutant F109M = CfEcR-DEF mutant F109M (Choristoneura fumiferana, UniProt O77255, F392M); experiment: cell-based; design: Concentration (mM) at max FI: unit not given here; conditions: for Emax: NIH3T3, 40 h, read-out: Rel Max FI
# CfEcR-DEF mutant F109M, sequence (O77255 entry or part of it F392M): as the sequence (O77255 entry or part of it A393N) above, with F186M, N187A counted along it
# CfEcR-DEF mutant F109M, sequence (P28702 299-449, further chain): as the sequence (P28702 299-449, stated change not applied, further chain) above
# Experimental: as §1, §2, §3
# CfEcR-DEF mutant F48W = CfEcR-DEF mutant F48W (Choristoneura fumiferana, UniProt O77255, F331W); experiment: cell-based; design: Concentration (mM) at max FI: unit not given here; conditions: for Emax: NIH3T3, 40 h, read-out: Rel Max FI
# CfEcR-DEF mutant F48W, sequence (P28702 299-449): as the sequence (P28702 299-449, stated change not applied, further chain) above
# CfEcR-DEF mutant F48W, sequence (O77255 entry or part of it F331W): as the sequence (O77255 entry or part of it A393N) above, with F125W, N187A counted along it
# Experimental: as §1, §2, §3
# CfEcR-DEF mutant F48Y = CfEcR-DEF mutant F48Y (Choristoneura fumiferana, UniProt O77255, F331Y); experiment: cell-based; design: Concentration (mM) at max FI: unit not given here; conditions: for Emax: NIH3T3, 40 h, read-out: Rel Max FI
# CfEcR-DEF mutant F48Y, sequence (O77255 entry or part of it F331Y): as the sequence (O77255 entry or part of it A393N) above, with F125Y, N187A counted along it
# CfEcR-DEF mutant F48Y, sequence (P28702 299-449, further chain): as the sequence (P28702 299-449, stated change not applied, further chain) above
# Experimental: as §1, §2, §3
# CfEcR-DEF mutant T52P = CfEcR-DEF mutant T52P (Choristoneura fumiferana, UniProt O77255, T335P); experiment: cell-based; design: Concentration (mM) at max FI: unit not given here; conditions: for Emax: NIH3T3, 40 h, read-out: Rel Max FI
# CfEcR-DEF mutant T52P, sequence (P28702 298-449): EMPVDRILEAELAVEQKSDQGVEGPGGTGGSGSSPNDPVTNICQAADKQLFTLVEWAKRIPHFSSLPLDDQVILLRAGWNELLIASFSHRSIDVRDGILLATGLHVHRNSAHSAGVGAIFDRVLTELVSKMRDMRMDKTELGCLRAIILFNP
# CfEcR-DEF mutant T52P, sequence (O77255 entry or part of it T335P): as the sequence (O77255 entry or part of it A393N) above, with T129P, N187A counted along it
# Experimental: as §1, §2, §3
# CfEcR-DEF mutant V128F = CfEcR-DEF mutant V128F (Choristoneura fumiferana, UniProt O77255, V411F); experiment: cell-based; design: Concentration (mM) at max FI: unit not given here; conditions: for EC50: EC50, mutant V128F; for Emax: NIH3T3, 40 h, read-out: Rel Max FI
# CfEcR-DEF mutant V128F, sequence (P28702 299-449): as the sequence (P28702 299-449, stated change not applied, further chain) above
# CfEcR-DEF mutant V128F, sequence (O77255 entry or part of it V411F): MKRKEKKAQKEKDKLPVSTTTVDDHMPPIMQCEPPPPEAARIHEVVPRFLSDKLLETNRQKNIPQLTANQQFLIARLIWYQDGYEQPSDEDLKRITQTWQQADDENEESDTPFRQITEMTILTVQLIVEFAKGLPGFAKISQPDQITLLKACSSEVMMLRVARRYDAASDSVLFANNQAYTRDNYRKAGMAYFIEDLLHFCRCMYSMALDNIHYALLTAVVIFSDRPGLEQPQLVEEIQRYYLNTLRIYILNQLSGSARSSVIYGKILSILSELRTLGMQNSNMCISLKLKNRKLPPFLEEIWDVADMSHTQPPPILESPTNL
# Experimental: as §1, §2, §3
# CfEcR-DEF mutant V96E = CfEcR-DEF mutant V96E (Choristoneura fumiferana, UniProt O77255, V379E); experiment: cell-based; design: Concentration (mM) at max FI: unit not given here; conditions: for Emax: NIH3T3, 40 h, read-out: Rel Max FI
# CfEcR-DEF mutant V96E, sequence (O77255 entry or part of it V379E): as the sequence (O77255 entry or part of it V411F) above, with V161E, F193V counted along it
# CfEcR-DEF mutant V96E, sequence (P28702 299-449, further chain): as the sequence (P28702 299-449, stated change not applied, further chain) above
# Experimental: as §1, §2, §3
# CfEcR-DEF mutant W238E = CfEcR-DEF mutant W238E (Choristoneura fumiferana, UniProt O77255, W521E); experiment: cell-based; design: Concentration (mM) at max FI: unit not given here; conditions: for Emax: NIH3T3, 40 h, read-out: Rel Max FI
# CfEcR-DEF mutant W238E, sequence (P28702 299-449): as the sequence (P28702 299-449, stated change not applied, further chain) above
# CfEcR-DEF mutant W238E, sequence (O77255 entry or part of it W521E): as the sequence (O77255 entry or part of it V411F) above, with F193V, W303E counted along it
# Experimental: as §1, §2, §3
# CfEcR-DEF mutant Y120M = CfEcR-DEF mutant Y120M (Choristoneura fumiferana, UniProt O77255, Y403M); experiment: cell-based; design: Concentration (mM) at max FI: unit not given here; conditions: for Emax: NIH3T3, 40 h, read-out: Rel Max FI
# CfEcR-DEF mutant Y120M, sequence (O77255 entry or part of it Y403M): as the sequence (O77255 entry or part of it V411F) above, with Y185M, F193V counted along it
# CfEcR-DEF mutant Y120M, sequence (P28702 299-449, further chain): as the sequence (P28702 299-449, stated change not applied, further chain) above
# Experimental: as §1, §2, §3
# CfEcR-DEF mutant F109P = experiment: GAL4-driven luciferase reporter assay in NIH3T3 cells; type: cell-based, Choristoneura fumiferana
# Experimental: as §1, §2, §3
# CfEcR-DEF mutant I51N = experiment: as above; type: cell-based, Choristoneura fumiferana
# Experimental: as §1, §2, §3
# CfEcR-DEF mutant L132N = experiment: as above; type: cell-based, Choristoneura fumiferana
# Experimental: as §1, §2, §3
# CfEcR-DEF mutant N119F = experiment: as above; type: cell-based, Choristoneura fumiferana
# Experimental: as §1, §2, §3
# CfEcR-DEF mutant F48K = CfEcR-DEF mutant F48K (Choristoneura fumiferana, UniProt O77255, F331K); experiment: as above; type: cell-based
# CfEcR-DEF mutant F48K, sequence (O77255 entry or part of it F331K): as the sequence (O77255 entry or part of it V411F) above, with F113K, F193V counted along it
# CfEcR-DEF mutant F48K, sequence (P28702 299-449, further chain): as the sequence (P28702 299-449, stated change not applied, further chain) above
# How it was run: (§4)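 Mouse NIH3T3 cells were treated with ligand in DMSO, then transfected with GAL4 luciferase reporter (0.16 μg/well) plus mutant CfEcR-DEF receptor constructs (0.04 μg each/well). Cells were kept at 37° C in 5% FBS and lysed 40 hours after ligand addition for dual-luciferase measurement. Fold induction = ligand RLU ÷ DMSO RLU.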
# CfEcR-DEF mutant F48R = CfEcR-DEF mutant F48R (Choristoneura fumiferana, UniProt O77255, F331R); experiment: as above; type: cell-based
# CfEcR-DEF mutant F48R, sequence (O77255 entry or part of it F331R): as the sequence (O77255 entry or part of it A393N) above, with F125R, N187A counted along it
# CfEcR-DEF mutant F48R, sequence (P28702 299-449, further chain): as the sequence (P28702 299-449, stated change not applied, further chain) above
# How it was run: as §4
# CfEcR-DEF mutant I51M = CfEcR-DEF mutant I51M (Choristoneura fumiferana, UniProt O77255, I334M); experiment: as above; type: cell-based
# CfEcR-DEF mutant I51M, sequence (P28702 299-449): as the sequence (P28702 299-449, stated change not applied, further chain) above
# CfEcR-DEF mutant I51M, sequence (O77255 entry or part of it I334M): as the sequence (O77255 entry or part of it A393N) above, with I128M, N187A counted along it
# How it was run: as §4
# CfEcR-DEF mutant M125I = CfEcR-DEF mutant M125I (Choristoneura fumiferana, UniProt O77255, M408I); experiment: as above; type: cell-based
# CfEcR-DEF mutant M125I, sequence (O77255 entry or part of it M408I): as the sequence (O77255 entry or part of it A393N) above, with N187A, M202I counted along it
# CfEcR-DEF mutant M125I, sequence (P28702 299-449, further chain): as the sequence (P28702 299-449, stated change not applied, further chain) above
# How it was run: as §4
# CfEcR-DEF mutant M219A = CfEcR-DEF mutant M219A (Choristoneura fumiferana, UniProt O77255, M502A); experiment: as above; type: cell-based
# CfEcR-DEF mutant M219A, sequence (O77255 entry or part of it M502A): as the sequence (O77255 entry or part of it A393N) above, with N187A, M296A counted along it
# CfEcR-DEF mutant M219A, sequence (P28702 299-449, further chain): as the sequence (P28702 299-449, stated change not applied, further chain) above
# How it was run: as §4
# CfEcR-DEF mutant T52Q = CfEcR-DEF mutant T52Q (Choristoneura fumiferana, UniProt O77255, T335Q); experiment: as above; type: cell-based
# CfEcR-DEF mutant T52Q, sequence (P28702 299-449): as the sequence (P28702 299-449, stated change not applied, further chain) above
# CfEcR-DEF mutant T52Q, sequence (O77255 entry or part of it T335Q): as the sequence (O77255 entry or part of it V411F) above, with T117Q, F193V counted along it
# How it was run: as §4
# CfEcR-DEF mutant T52R = CfEcR-DEF mutant T52R (Choristoneura fumiferana, UniProt O77255, T335R); experiment: as above; type: cell-based
# CfEcR-DEF mutant T52R, sequence (O77255 entry or part of it T335R): as the sequence (O77255 entry or part of it V411F) above, with T117R, F193V counted along it
# CfEcR-DEF mutant T52R, sequence (P28702 299-449, further chain): as the sequence (P28702 299-449, stated change not applied, further chain) above
# How it was run: as §4
# [1] = NIH3T3, mouse, 40 h, read-out: GS-E ligand max FI (relative to DMSO)
# [2] = NIH3T3, 40 h, read-out: Rel Max FI
compound,measurement,setting,value
"CCc1cccc(C(=O)NN(C(=O)c2cc(C)cc(C)c2)C(C)(C)C)c1C [RG-101691, 3,5-Dimethyl-benzoic acid N-tert-butyl-N′-(3-ethyl-2-methyl-benzoyl)-hydrazide]",EC50,CfEcR-DEF mutant A110N,880 nM
same,Emax,CfEcR-DEF mutant A110N,99%
same,EC50,CfEcR-DEF mutant F109M,650 nM
same,Emax,CfEcR-DEF mutant F109M,75%
same,EC50,CfEcR-DEF mutant F48W,1530 nM
same,Emax,CfEcR-DEF mutant F48W,74%
same,EC50,CfEcR-DEF mutant F48Y,930 nM
same,Emax,CfEcR-DEF mutant F48Y,69%
same,EC50,CfEcR-DEF mutant T52P,> 33000 nM
same,Emax,CfEcR-DEF mutant T52P,2%
same,EC50,CfEcR-DEF mutant V128F,~8300 nM and 5400 nM
same,Emax,CfEcR-DEF mutant V128F,4%
same,EC50,CfEcR-DEF mutant V96E,1620 nM
same,Emax,CfEcR-DEF mutant V96E,81%
same,EC50,CfEcR-DEF mutant W238E,~8000 nM
same,Emax,CfEcR-DEF mutant W238E,71%
same,EC50,CfEcR-DEF mutant Y120M,~10000 nM
same,Emax,CfEcR-DEF mutant Y120M,30%
"CCc1c(OC)cccc1C(=O)NN(C(=O)c1cc(C)cc(C)c1)C(C)(C)C [RG-102240, N-(2-ethyl-3-methoxybenzoyl)-N′-(3,5-dimethylbenzoyl)-N′-tert-butylhydrazine]",GS-E ligand max FI (relative to DMSO),CfEcR-DEF mutant F109P,1
same,Concentration (mM) at max FI,CfEcR-DEF mutant F109P; GS-E ligand,10.00 mM
same,GS-E ligand max FI (relative to DMSO),CfEcR-DEF mutant I51N,1
same,Concentration (mM) at max FI,CfEcR-DEF mutant I51N; GS-E ligand,33.30 mM
same,GS-E ligand max FI (relative to DMSO),CfEcR-DEF mutant L132N,785
same,Concentration (mM) at max FI,CfEcR-DEF mutant L132N; GS-E ligand,33.30 mM
same,Fold increase over WT,CfEcR-DEF mutant N119F; 1.6 nM ligand,1.22
same,Fold increase over WT,CfEcR-DEF mutant N119F; 8 nM ligand,0.73
same,Fold increase over WT,CfEcR-DEF mutant N119F; 40 nM ligand,0.06
same,Fold increase over WT,CfEcR-DEF mutant N119F; 200 nM ligand,0.01
same,Fold increase over WT,CfEcR-DEF mutant N119F; 1 μM ligand,0.08
same,Fold increase over WT,CfEcR-DEF mutant N119F; 5 μM ligand,0.59
same,EC50,CfEcR-DEF mutant A110N,1410 nM
same,Emax,CfEcR-DEF mutant A110N,100%
same,maximal fold induction,CfEcR-DEF mutant A110N; [1],1680
same,Concentration (mM) at max FI,"CfEcR-DEF mutant A110N; mutant A110N, GS-E ligand",10.00
same,EC50,CfEcR-DEF mutant F109M,660 nM
same,Emax,CfEcR-DEF mutant F109M,100%
same,maximal fold induction,CfEcR-DEF mutant F109M; [1],1480
same,Concentration (mM) at max FI,"CfEcR-DEF mutant F109M; mutant F109M, GS-E ligand",3.3
same,EC50,CfEcR-DEF mutant F48W,~1000 nM
same,Emax,CfEcR-DEF mutant F48W,100%
same,maximal fold induction,CfEcR-DEF mutant F48W; [1],1640
same,Concentration (mM) at max FI,"CfEcR-DEF mutant F48W; mutant F48W, GS-E ligand",33.3
same,EC50,CfEcR-DEF mutant F48Y,1270 nM
same,Emax,CfEcR-DEF mutant F48Y,100%
same,maximal fold induction,CfEcR-DEF mutant F48Y; [1],1360
same,Concentration (mM) at max FI,"CfEcR-DEF mutant F48Y; mutant F48Y, GS-E ligand",33.3
same,EC50,CfEcR-DEF mutant T52P,~10000 nM
same,Emax,CfEcR-DEF mutant T52P,100%
same,maximal fold induction,CfEcR-DEF mutant T52P; [1],301
same,Concentration (mM) at max FI,"CfEcR-DEF mutant T52P; mutant T52P, GS-E ligand",33.3
same,EC50,CfEcR-DEF mutant V128F,> 33000 nM
same,Emax,CfEcR-DEF mutant V128F,0%
same,maximal fold induction,CfEcR-DEF mutant V128F; [1],550
same,Concentration (mM) at max FI,"CfEcR-DEF mutant V128F; mutant V128F, GS-E ligand",33.30
same,EC50,CfEcR-DEF mutant V96E,~2000 nM
same,Emax,CfEcR-DEF mutant V96E,100%
same,maximal fold induction,CfEcR-DEF mutant V96E; [1],2960
same,Concentration (mM) at max FI,"CfEcR-DEF mutant V96E; mutant V96E, GS-E ligand",33.30
same,EC50,CfEcR-DEF mutant W238E,~6000 nM
same,Emax,CfEcR-DEF mutant W238E,100%
same,maximal fold induction,CfEcR-DEF mutant W238E; [1],1020
same,Concentration (mM) at max FI,"CfEcR-DEF mutant W238E; mutant W238E, GS-E ligand",33.3
same,EC50,CfEcR-DEF mutant Y120M,~4000 nM
same,Emax,CfEcR-DEF mutant Y120M,100%
same,maximal fold induction,CfEcR-DEF mutant Y120M; [1],1710
same,Concentration (mM) at max FI,"CfEcR-DEF mutant Y120M; mutant Y120M, GS-E ligand",33.3
same,EC50,CfEcR-DEF mutant F48K,11100 nM
same,Emax,CfEcR-DEF mutant F48K; [2],100%
same,EC50,CfEcR-DEF mutant F48R,7230 nM
same,Emax,CfEcR-DEF mutant F48R; [2],100%
same,EC50,CfEcR-DEF mutant I51M,3940 nM
same,Emax,CfEcR-DEF mutant I51M; [2],100%
same,EC50,CfEcR-DEF mutant M125I,1360 nM
same,Emax,CfEcR-DEF mutant M125I; [2],100%
same,EC50,CfEcR-DEF mutant M219A,2900 nM
same,Emax,CfEcR-DEF mutant M219A; [2],100%
same,EC50,CfEcR-DEF mutant T52Q,2950 nM
same,Emax,CfEcR-DEF mutant T52Q; [2],100%
same,EC50,CfEcR-DEF mutant T52R,6690 nM
same,Emax,CfEcR-DEF mutant T52R; [2],100%
"Cc1cc(C)cc(C(=O)N(NC(=O)c2cccc(C(C)C)c2C)C(C)(C)C)c1 [RG-102362, 3,5-Dimethyl-benzoic acid N-tert-butyl-N′-(3-isopropyl-2-methyl-benzoyl)-hydrazide]",EC50,CfEcR-DEF mutant A110N,720 nM
same,Emax,CfEcR-DEF mutant A110N,86%
same,EC50,CfEcR-DEF mutant F109M,820 nM
same,Emax,CfEcR-DEF mutant F109M,60%
same,EC50,CfEcR-DEF mutant F48W,770 nM
same,Emax,CfEcR-DEF mutant F48W,51%
same,EC50,CfEcR-DEF mutant F48Y,590 nM
same,Emax,CfEcR-DEF mutant F48Y,48%
same,EC50,CfEcR-DEF mutant T52P,~6000 nM
same,Emax,CfEcR-DEF mutant T52P,11%
same,EC50,CfEcR-DEF mutant V128F,> 33000 nM
same,Emax,CfEcR-DEF mutant V128F,234%
same,EC50,CfEcR-DEF mutant V96E,1860 nM
same,Emax,CfEcR-DEF mutant V96E,48%
same,EC50,CfEcR-DEF mutant W238E,3450 nM
same,Emax,CfEcR-DEF mutant W238E,45%
same,EC50,CfEcR-DEF mutant Y120M,~10000 nM
same,Emax,CfEcR-DEF mutant Y120M,13%
